The values below come from US8865672B2, “Prevention of tissue ischemia and related methods” (The United States of America, as represented by the …, priority 2006, dated 2014).

By IC50 is commonly meant the concentration that inhibits the measured activity by half. Low readings indicate greater potency in that assay, high ones weaker potency in that assay.

Assay [1] has as its system NO/cGMP signaling. The assay is described as follows: cGMP signaling (NO-stimulated cGMP, immunoassay). It is filed as cell-based, human. The note with it: concentration for 50% inhibition of effect. The essentials:
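Endothelial or HT-1080 cells (10^4 cells/well) serum-weaned over 48 h, then treated with NO donors and other agents in serum-free medium + 0.1% BSA. Intracellular cGMP measured by enzyme immunoassay; washed human platelets were also treated ± NO in Tyrode's buffer for cGMP determination.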

In assay [2] the target is T1, CD47 IgV domain / SIRP IgV domain (Homo sapiens, UniProt Q08722).
T1 construct: alkaline phosphatase fusions of the CD47 IgV domain
T1 sequence (Q08722 19-127 limits assumed): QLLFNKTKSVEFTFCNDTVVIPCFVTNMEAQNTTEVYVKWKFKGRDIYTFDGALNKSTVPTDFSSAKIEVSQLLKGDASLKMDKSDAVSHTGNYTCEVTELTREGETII
The assay is described as follows: ELISA of SIRP IgV domain binding to CD47 IgV domain. The note with it: Fc-SIRP IgV on protein A plates, alkaline phosphatase-CD47 IgV. From the text: SIRP-alpha (Signal Inhibitory Regulatory Protein Alpha; SIRPα) and the closely related SIRP-gamma (SIRPγ formerly called SIRP-beta) are two ligands of CD47. They consist of an N-terminal IgV set domain and variable numbers of 1 g domains followed by a transmembrane segment and variously spliced cytoplasmic tails, some of which contain phosphorylatable tyrosines that constitute docking sites for tyrosine phosphatases such as SHP-1 and SHP-2. The IgV domain of SIRP-alpha and -gamma are high affinity ligands of CD47 with species specificity thought to allow self vs. non-self discrimination by phagocytes. The binding of the IgV domain of SIRPα to the IgV domain of CD47 can be measured in a simple ELISA assay using recombinant versions of each protein. For this purpose we have employed Fc-fusions of SIRP IgV domain and alkaline phosphatase fusions of the CD47 IgV domain. The Fc-IgV protein is adsorbed to well plates coated with protein A to which the Fc binds. Potential inhibitors are added and the binding of alkaline phosphatase-conjugated CD47 IgV domain is measured by routine procedures.
For orientation: An ELISA detects its analyte on a solid surface through an enzyme-linked reagent.

For assay [3], the system named is HASMC. The assay is described as follows: Intracellular cGMP in HASMC. It is filed as cell-based, human. The note with it: DEA/NO 10 μM, 5 minutes.
Assay [4] concerns murine ASMC (WT, CD36 null, CD47 null). The assay is described as follows: Intracellular cGMP in murine ASMC. The assay is classed as cell-based, mouse. The essentials: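 Aortic smooth muscle cells from wild-type C57Bl/6, CD36-null or CD47-null mice, passage 1–4, plated overnight in full growth medium. Weaned to SM-GM + 0.1% BSA before treatment with NO donor and other agents. Intracellular cGMP measured by enzyme immunoassay.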

The test system of assay [5] is HASMC. The assay is described as follows: HASMC proliferation (MTS). It is filed as cell-based, human. The note with it: DETA/NO 10 μM, 72 h. On the procedure: Proliferation of vascular cells was measured with a non-radioactive colorimetric assay (CellTiter 96, Promega, Madison, Wis.). Briefly, to each well of a 96-well culture plate (Nunc, Denmark) 5×10^3 cells were suspended in 100 μl of culture medium with indicated treatments and incubated for 72 hours at 37° C. in a 5% CO2 atmosphere. Following incubation 20 μl of tetrazolium compound/solubilization agent was added and incubation continued for 4 hours under the same conditions. The plate was then read on a MR580 Microelisa Auto Reader (Dynatech) at a wavelength of 490 nm. Appropriate zero time controls were run for all assays and the optical density readings obtained then subtracted from those obtained at 72 hours.

The test system of assay [6] is HASMC. The assay is described as follows: NO-stimulated HASMC adhesion on type I collagen. As to conditions: DEA/NO 10 μM. The assay is classed as cell-based, human. On the procedure: Cell adhesion was carried out in 96-well culture plates. After pre-coating wells with type I collagen (3 μg/ml in DPBS) harvested cells were plated at a density of 1×10^4 cells/well in medium plus 0.1% BSA and treatment agents and incubated in 5% CO2 for 1 h. Wells were washed with PBS and cells fixed with 1% glutaraldehyde for 10 min., washed and stained with 1% crystal violet for 20 min. Excess stain was rinsed away, adherent cells treated with 10% acetic acid, and plates read at 570 nm.

The test system of assay [7] is HUVEC. The assay is described as follows: Intracellular cGMP in HUVEC. The assay is classed as cell-based, human. As to conditions: DEA/NO 10 μM. On the procedure: HUVEC (10^4 cells/well) grown overnight in 96-well culture plates containing full growth medium with 2% FCS and weaned in growth medium without additives and 1% FCS over 24 hrs before treatment with NO donors and other agents in SM-GM without additives+0.1% BSA. Intracellular cGMP levels were determined according to the manufacturer's instructions using an enzyme immunoassay kit (Amersham Biosciences). In other experiments ASMC from wild type and CD36 or CD47 null mice were plated onto 96-well culture plates and incubated overnight in full growth medium. They were then weaned off serum as described to SM-GM+0.1% BSA and treated with NO donor and other agents as indicated. Intracellular cyclic nucleotides were determined via immunoassay.

Peptide text beside a SMILES is read from it.

`CC[C@H](C)[C@H](N)C(=O)NCC(=O)N[C@@H](Cc1c[nH]c2ccccc12)C(=O)N[C@@H](CCCCN)C(=O)N[C@@H](CC(=O)O)C(=O)N[C@@H](Cc1ccc(O)cc1)C(=O)N[C@H](C(=O)N[C@@H](C)C(=O)N[C@@H](Cc1ccc(O)cc1)C(=O)N[C@@H](CCCNC(=N)N)C(=O)O)[C@@H](C)O` [compound 37298, IGWKDYTAYR] (H-IGWKDYTAYR-OH) displayed a half-inhibitory concentration (IC50) in assay [1] of about 100 nM. Besides, the “inhibition of binding of the SIRP IgV domain to CD47” value in assay [2] is “can inhibit the binding”.
With “CBD: recombinant C-terminal cell-binding domain (G module) of TSP1”, the “NO-stimulated cGMP levels in HASMC” value in assay [3] is given as “equipotent dose-dependent inhibitors”. Also, the “NO-stimulated cGMP” value in assay [4] (CD36 null MASMC) is recorded as “completely inhibited”; in assay [4] (CD47 null MASMC), “did not significantly inhibit”. Also, the “NO-stimulated HASMC proliferation” value in assay [5] was “inhibited NO-stimulated HASMC proliferation”. For the same compound, in assay [6] (1 h), the “NO-stimulated HASMC adhesion on type I collagen” value was “slightly less active but also dose-dependently inhibited”.
In the case of “E3CaG1: recombinant C-terminal regions of TSP1”, the “NO-stimulated cGMP levels in HASMC” value in assay [3] is “equipotent dose-dependent inhibitors”. Also, the “NO-driven cGMP production” value in assay [7] was “potently inhibited”. Further, in assay [6], the “concentration that inhibited NO-driven HASMC adhesion to collagen” value is listed as over 0.4 nM.
